Literature values in US7160560B2, “Skin-care composition” (L'Oreal S.A., priority 2003, dated 2007).

What was measured:
[1] = system: human keratinocytes
[2] = system: human dermal fibroblasts

## CC1=N[C@H](C(=O)O)CCN1 [ectoin, (s)-1,4,5,6-tetrahydro-2-methyl-4-pyrimidinecarboxylic acid]
[1]
  signaling cascade brought about by UVA-radiation: inhibits
[2]
  UVA radiation-induced formation of mitochondrial DNA mutations: inhibits
